In patent publication US20250114338A1, “TETRAHYDRO-PYRIDO[3,4-b]INDOLE ESTROGEN RECEPTOR MODULATORS AND USES THEREOF” (Genentech, Inc., priority 2014, published 2025):

System: ER-alpha MCF7
Assay: ER-alpha MCF7 HCS EC50; stated as measured by in vitro cell proliferation assays of Examples 902 and 903
Type: cell-based
Details: Homo sapiens, MCF7, MCF7 cells; Table 2
Procedure, shortened: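 MCF7 cells seeded 1000-2000 cells/well for 16 h, then treated with nine-point 1:2 DMSO dilution series in quadruplicate at 37 °C, 5% CO2 for 4 days. Viable cells quantified by CellTiter-Glo ATP luminescence; EC50 calculated. Controls: fulvestrant at final 100 nM, DMSO 0.2% v/v.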

Compound: C[C@@H]1Cc2c([nH]c3ccccc23)[C@H](c2ccc(OCCN3CC(CF)C3)cc2F)N1S(C)(=O)=O [Example 231, (1S,3R)-1-[2-fluoro-4-[2-[3-(fluoromethyl)azetidin-1-yl]ethoxy]phenyl]-3-methyl-2-methylsulfonyl-1,3,4,9-tetrahydropyrido[3,4-b]indole]
- EC50: 24 nM

Compound: C[C@@H]1Cc2c([nH]c3ccccc23)[C@@H](c2ccc(OCCN3CC(CF)C3)cc2F)N1S(C)(=O)=O [Example 232, (1R,3R)-1-[2-fluoro-4-[2-[3-(fluoromethyl)azetidin-1-yl]ethoxy]phenyl]-3-methyl-2-methylsulfonyl-1,3,4,9-tetrahydropyrido[3,4-b]indole]
- EC50: 0.192 nM

Compound: C[C@@H]1Cc2c([nH]c3ccccc23)[C@@H](c2c(F)cc(OC3CN(CCCF)C3)cc2F)N1C[C@](C)(F)CO [Example 233, 3-((1R,3R)-1-(2,6-difluoro-4-((1-(3-fluoropropyl)azetidin-3-yl)oxy)phenyl)-3-methyl-1,3,4,9-tetrahydro-2H-pyrido[3,4-b]indol-2-yl)-2-fluoro-2-methylpropan-1-ol]
- EC50: 0.133 nM

Compound: C[C@@H]1Cc2c([nH]c3ccccc23)[C@@H](c2c(F)cc(OC3CN(CCCF)C3)cc2F)N1C[C@@](C)(F)CO [Example 234, 3-((1R,3R)-1-(2,6-difluoro-4-((1-(3-fluoropropyl)azetidin-3-yl)oxy)phenyl)-3-methyl-1,3,4,9-tetrahydro-2H-pyrido[3,4-b]indol-2-yl)-2-fluoro-2-methylpropan-1-ol]
- EC50: 0.18 nM

Compound: C[C@@H]1Cc2c([nH]c3ccccc23)[C@H](c2ccc(OCCN3CC(CF)C3)cc2)N1C(=O)C(C)(C)F [Example 235, 2-fluoro-1-[(1S,3R)-1-[4-[2-[3-(fluoromethyl)azetidin-1-yl]ethoxy]phenyl]-3-methyl-1,3,4,9-tetrahydropyrido[3,4-b]indol-2-yl]-2-methyl-propan-1-one]
- EC50: 24 nM

Compound: CC(C)(F)CN1CCc2c([nH]c3ccccc23)[C@H]1c1c(F)cc(OCCN2CC(CF)C2)cc1F [Example 236, (IR)-1-[2,6-difluoro-4-[2-[3-(fluoromethyl)azetidin-1-yl]ethoxy]phenyl]-2-(2-fluoro-2-methyl-propyl)-1,3,4,9-tetrahydropyrido[3,4-b]indole]
- EC50: 0.182 nM

Compound: CC(C)(F)CN1CCc2c([nH]c3ccccc23)[C@@H]1c1c(F)cc(OCCN2CC(CF)C2)cc1F [Example 237, (1S)-1-[2,6-difluoro-4-[2-[3-(fluoromethyl)azetidin-1-yl]ethoxy]phenyl]-2-(2-fluoro-2-methyl-propyl)-1,3,4,9-tetrahydropyrido[3,4-b]indole]
- EC50: 46 nM

Compound: C[C@@H]1Cc2c([nH]c3ccccc23)[C@@H](c2c(F)cc(OC3CN(CCCF)C3)cc2F)N1C(=O)C1(F)CC1 [Example 238, [(1R,3R)-1-[2,6-difluoro-4-[1-(3-fluoropropyl)azetidin-3-yl]oxy-phenyl]-3-methyl-1,3,4,9-tetrahydropyrido[3,4-b]indol-2-yl]-(1-fluorocyclopropyl)methanone]
- EC50: 0.244 nM

Compound: C[C@@H]1Cc2c([nH]c3ccc(Cl)cc23)[C@@H](c2c(F)cc(OC3CN(CCCF)C3)cc2F)N1CC(C)(C)F [Example 239, (1R,3R)-6-chloro-1-(2,6-difluoro-4-((1-(3-fluoropropyl)azetidin-3-yl)oxy)phenyl)-2-(2-fluoro-2-methylpropyl)-3-methyl-2,3,4,9-tetrahydro-1H-pyrido[3,4-b]indole]
- EC50: 1.56 nM

Compound: C[C@@H]1Cc2c([nH]c3cc(F)ccc23)[C@@H](c2c(F)cc(OCCN3CC(CF)C3)cc2F)N1CC(C)(C)F [Example 240, (1R,3R)-1-(2,6-difluoro-4-(2-(3-(fluoromethyl)azetidin-1-yl)ethoxy)phenyl)-7-fluoro-2-(2-fluoro-2-methylpropyl)-3-methyl-2,3,4,9-tetrahydro-1H-pyrido[3,4-b]indole]
- EC50: 0.261 nM
